From PMC8302598, “Rapid discovery of self-assembling peptides with one-bead one-compound peptide library” (Nature Communications, 2021)

Legend:
HeLa cells = test: CCK-8 cell viability assay; format: cell-based; conditions: incubation 24 and 72 h, n=3
Procedure: Finally, we examined the biological effects and cellular distribution of the eight self-assembling peptides on HeLa cells. […] In order to observe the nanomaterials under fluorescent microscopy, each peptide preparation was spiked with 3% of the same peptide N-terminally labeled with FITC, and then added to HeLa cells at a final concentration of 40 μM. […] After 4 h of incubation with the peptide assemblies, the cells were observed under a fluorescent microscope (Figs. 4c, d and Supplementary 22). […] It is important to note that LDFPI nanoparticle was small (8 nm diameter) even after 4 h incubation. Its small size may in part explain its ability to pass through the nuclear pore complexes[32],[33]. […] To evaluate the cell uptake mechanism of peptide assemblies (YFTEF, ISDNL, and FGFDP) into the cytoplasm, we treated the cells at 4 °C or with various endocytosis inhibitors (Supplementary Fig. 23).
TentaGel S Resin was purchased from Rapp Polymere (Germany, loading 0.31 mmol/g). 9-Fluorenylmethoxycarbonyl (Fmoc)-protected amino acids, 2-(1H-benzotriazole-1-yl)-1,1,3,3- tetramethyluronium hexafluoro-phosphate (HBTU), and Wang resin were obtained from GL Biochem (China). Trifluoroacetic acid (TFA), fluorescein isothiocyanate (FITC), N-methyl morpholine (NMM), piperidine, and N,N′-dimethylformamide (DMF) were all from Beijing Chemical Plant (China). 1,2-Ethanedithiol (EDT) was purchased from Alfa Aesar (USA). Dimethyl sulfoxide (DMSO) was purchased from Aldrich Chemical Co. and used without further purification. Cyanogen bromide (CNBr) was from J&K Chemical (China). The HeLa cell lines were received from the Cell Culture Center of the Institute of Basic Medical Sciences, Chinese Academy of Medical Sciences (Beijing, China). Cell culture medium and fetal bovine serum were from WisentInc (Multicell, WisentInc, St. Bruno. The cell counting kit-8 assay (CCK-8) (Beyotime Institute of Biotechnology, China) was used. Hela cells were maintained Dulbecco’s modified eagle’s medium (DMEM) with 10% fetal bovine serum and 1% penicillin. All cells were cultured in a humidified atmosphere containing 5% CO2 at 37 °C.
Supplementary Figure 21 . a-h. CCK-8 cell viability assay for 8 pentapeptides (FTISD, ITSVV, YFTEF, ISDNL , LDFPI, FAGFT,
FGFDP, FFVDF) after incubation with HeLa cells for 24 and 72 h.
Standard Deviatio n (n=3).
(1 picture or pasted object on this page, not shown here)

[1] = Fluorescent-activation screening assay on OBOC beads (NBD); format: physicochemical; conditions: peptide N-terminally capped with NBD on TentaGel S beads, in water, fluorescence microscope
Description: It is well known that Aβ16–20 peptide sequence KLVFF can self-assemble into nanofibers in water. We, therefore, chose it as a model peptide to test our screening strategy and used KAAGG as the non-assembling negative control. These control peptides, N-terminally capped with NBD were synthesized with standard Fmoc-chemistry, and TentaGel S resin beads as solid support but without any cleavable linker. After side-chain deprotection, the beads were thoroughly washed with DMF, which was replaced stepwise with water or methanol and then examined under a fluorescent microscope. […] This is expected as the hydrophobicity-sensitive fluorescence dye NBD would fluoresce brightly under hydrophobic condition, in this case, methanol. In water, we expect fluorescent signal emitted from non-sequestered NBD to diminish, unless it is buried inside a hydrophobic environment such as within peptide aggregates or β-sheets formed by KLVFF peptides.
(§1) Once the screening method has been validated with our model KLVFF peptide, a totally random pentapeptide library with 19[5] permutations (cysteine was omitted from the library) was constructed using our previously published methods (Supplementary Fig. 3)[23]. Again, TentaGel S resin (loading of 0.31 mmol/g) was used as the solid support. The pentapeptides in the library were N-terminally capped with NBD. […] The positive bead with an intense fluorescent signal (pointed with a solid arrow) was noted. The rest of the beads were considered negative or weak positive beads. From a total of approximately 100 000 beads screened, we selected a total of eight strongest fluorescent positive beads and four dark beads as negative beads. The peptides were then resynthesized in soluble form and purified by high-performance liquid chromatography (HPLC) for testing (Supplementary Figs. 4–12). The amino acid sequences of the eight self-assembling pentapeptides are FTISD, ITSVV, YFTEF, ISDNL, LDFPI, FAGFT, FGFDP, and FFVDF. Not unexpectedly, of the 40 amino acids in these eight pentapeptides, 50% are hydrophobic residues, predominated by Phe (11 Phe, 4 Ile, 3 Val, and 2 Leu). For the remaining 20 amino acids, six are acidic residues (5 Asp and 1 Glu) and seven are neutral and hydrophilic (4 Thr and 3 Ser). The rest are 2 Pro, 2 Gly, 1 Tyr, 1 Asn, and 1 Ala. All eight peptides have at least two hydrophobic residues. Six out of the eight peptides have one negatively charged residue (Asp or Glu). The remaining two peptides are neutral. […] For the Pro containing pentapeptides, LDFPI and FGFDP, the Pro residue, which promotes peptide turns, resides at the fourth and fifth positions, but not in the middle. Not unexpectedly, all the four randomly selected negative non-assembling peptides (RITTR, PLVKA, PFTTR, and QIMRW) have very different sequences, and contain at least one positive charged amino acid.
The OBOC pentapeptide libraries (19[5]) were built using Fmoc strategy SPPS (solid-phase peptide synthesis) (Supplementary Fig. 3). TentaGel S Resin (named N-beads with loading 0.31 mmol/g) was used as the solid phase support. The pentapeptide sequence of X1 X2 X3 X4 X5 was constructed in the library, in which X1−X5 represents either Ala, Asp, Glu, Phe, Gly, His, Ile, Lys, Leu, Met, Asn, Pro, Gln, Arg, Ser, Thr, Val, Trp, and Tyr residues. During the synthesis of OBOC library, solid support beads were mixed and split equally in each cycle, then different amino acids were added, separately, the process was repeated four times. The synthesis of peptides was used anhydrous DMF as solvent. The Fmoc group was removed by 20% (v/v) piperidine in DMF and the deprotection time was 10 min twice. During the coupling step, the HBTU (4 mM) and Fmoc-amino acid (4 mM) were dissolved in DMF containing NMM (0.4 mM). The coupling time was 50 min. Qualitative Fmoc deprotection and coupling were confirmed by ninhydrin test. All the above experiments were carried out in the solid phase peptide synthesis vessels with sieves in it. […]

[2] = Self-assembly of resynthesized soluble pentapeptides; format: physicochemical; conditions: self-assembly under aqueous environment
Description: as §1
To estimate the propensity of the identified peptides to self-assemble, the critical micelle concentrations (CMC) of the eight positive peptides and four negative peptides were determined, and the results are shown in Table 1 and Supplementary Figs. 13, 14. The CMC of all the eight positive peptides were detectable and found to range between 8.4 and 14.8 μM, indicating the propensity for these peptides to self-assemble under aqueous environment. […] Hydrophobicity of peptides can be predicted by the value of GRAVY[28] with more negative value for more hydrophilic peptides. Of the four negative assembling peptides, two have a negative GRAVY value. […] Experimental testing, such as the screening strategy described in this work, is needed. This is because multiple factors, including hydrophobicity, hydrogen-bonding, electrostatic interactions, and positions of each residue within the peptides, all contribute to the assembling and final morphology of the self-assembled nano-structure. […]

| Substance | Fluorescence (beads) [1] | Assembly [2] | Cell toxicity (CCK-8 cell viability) (HeLa cells) |
| --- | --- | --- | --- |
| FAGFT [self-assembling pentapeptide identified from OBOC library] | On | Yes | No cell toxicity was observed |
| FFVDF [self-assembling pentapeptide identified from OBOC library, forms nanofibers] | On | Yes | No cell toxicity was observed |
| FGFDP [self-assembling pentapeptide identified from OBOC library] | On | Yes | No cell toxicity was observed |
| FTISD [self-assembling pentapeptide identified from OBOC library] | On | Yes | No cell toxicity was observed |

Continued, in another order:

| Fluorescence (beads) [1] | Assembly [2] | Substance | Cell toxicity (CCK-8 cell viability) (HeLa cells) |
| --- | --- | --- | --- |
| On | Yes | ISDNL [self-assembling pentapeptide identified from OBOC library] | No cell toxicity was observed |
| On | Yes | ITSVV [self-assembling pentapeptide identified from OBOC library] | No cell toxicity was observed |
| On | Yes | LDFPI [self-assembling pentapeptide identified from OBOC library] | No cell toxicity was observed |
| On | Yes | YFTEF [self-assembling pentapeptide identified from OBOC library] | No cell toxicity was observed |
